Measured values: patent US11957661B2, “JAK1 pathway inhibitors for the treatment of vitiligo” (Incyte Corporation, priority 2020, dated 2024)

Legend:
Normal Human Melanocytes [1] = assay: Melanocyte proliferation assay with 20% CD8+ T cell conditioned media; assay type: cell-based; settings: for suppressed melanocyte proliferation response: 1000 nM co-cultured with CD3/CD28-activated human CD8+ T cells, 20% conditioned media; for spontaneous proliferation compared to the natural melanocyte proliferation rate: added to the inflammatory culture media, time-dependent
Procedure: The assay investigates an in vitro system using CD8+ T Cells and melanocytes. The assay tests whether Compound 1 modulates the inflammatory response and how such modulation affects melanocyte biology.
(§1) Methods: CD8+ T cell Conditioned Media Step: Normal Human CD8+ T Cells from peripheral blood were purchased ([…] Technologies). They were cultured for 48 hours at 37 C and 5% CO2 under activating and unactivating conditions inside the Incucyte Live-Cell Analysis System (Essen Bioscience). Activated T cells were cultured in a flat bottom 96 well plate (Costar) that was first coated with 10 ug/ml anti-CD3 (BD Biosciences) for 2 hours at room temperature and then washed one time with PBS before cells were added. They were grown in Melanocyte Growth Medium (NHM-GM, MatTek) containing 1 ug/ml anti-CD28 (BD Biosciences). Unactivated T cells were treated the same way except that they were cultured in a separate plate without anti-CD3 and anti-CD28. Each T cell plate was treated at seeding with Compound 1 (1000, 100, or 10 nM) or media alone. Each treatment was done in triplicate. After 48 hours, all the samples (T cells and media) were transferred to new V-bottom plates and centrifuged at 1300 RPMs for 10 minutes. Supernatants were collected from the T cell pellets carefully to not disturb the pellet. The supernatants (CD8+ T cell Conditioned Media) used fresh to treat the melanocyte. The remaining amounts were stored at −80 C and then thawed for protein analysis by Luminex technology (custom Procarta 45-plex, Thermo Fisher Scientific). The treated CD8+ T cell pellets were lysed using the Quantigene sample processing kit reagents following the kit instructions. Lysates were stored at −80 C and then thawed for RNA analysis by Luminex technology using two custom Quantigene 80-Plexes—150 targeted genes total (Thermo Fisher Scientific).
(§2) Melanocyte Proliferation Step: Normal Human Melanocytes isolated from a donor's neonatal foreskin epidermis were purchased (MatTek). They were thawed and seeded following manufacturer's instruction in NHM-GM media in flat bottom 96 well plates (Costar) for 18 hours at 37 C and 5% CO2. They were approximately 10% confluent when treated with 20% CD8+ T cell Conditioned Media (25 ul Conditioned media added to 100 ul of NHM-GM already in the wells). They were cultured for 48 hours at 37 C and 5% CO2 inside the Incucyte Live-Cell Analysis System (Essen Bioscience) with 5 images per well taken every 3 hrs. After 48 hours, all the supernatants were transferred from the melanocyte plates to new V-bottom plates and centrifuged at 1300 RPMs for 10 minutes. Supernatants were collected and were stored at −80 C and then thawed for protein analysis by Luminex technology (custom Procarta 45-plex, Thermo Fisher Scientific). The treated melanocytes were lysed using the Quantigene sample processing kit reagents following the kit instructions. Lysates were stored at −80 C and then thawed for RNA analysis by Luminex technology using two custom Quantigene 80-Plexes for a total of 150 targeted genes (Thermo Fisher Scientific). Incucyte images were analyzed using the Incucyte software and the percentage of melanocyte confluence was determined for each treatment.
The assay investigates an in vitro system using CD8+ T Cells and melanocytes. The assay tests whether ruxolitinib modulates the inflammatory response and how such modulation affects melanocyte biology. […]

[2] = test system: CD3/CD28-activated human CD8+ T cells; assay: Protein analysis (Luminex) of CD8+ T cell conditioned media; assay type: cell-based; settings: for LIF, T cells: T cell data
Procedure: as §1
as §1, with “ruxolitinib” for “Compound 1”

Normal Human Melanocytes [3] = assay: Protein analysis (Luminex) of melanocyte media after 20% CD8+ T cell conditioned media; assay type: cell-based; settings: for IL-8, protein melanocyte media: melanocytes under stress conditions
Procedure: as §2

human JAK2 = human JAK2 (Homo sapiens (Human), UniProt O60674); assay: In vitro JAK kinase assay (HTRF, Example A); assay type: biochemical; settings: JAK2/JAK1 IC50 ratio, 1 mM ATP
human JAK2, sequence (O60674 828-1132): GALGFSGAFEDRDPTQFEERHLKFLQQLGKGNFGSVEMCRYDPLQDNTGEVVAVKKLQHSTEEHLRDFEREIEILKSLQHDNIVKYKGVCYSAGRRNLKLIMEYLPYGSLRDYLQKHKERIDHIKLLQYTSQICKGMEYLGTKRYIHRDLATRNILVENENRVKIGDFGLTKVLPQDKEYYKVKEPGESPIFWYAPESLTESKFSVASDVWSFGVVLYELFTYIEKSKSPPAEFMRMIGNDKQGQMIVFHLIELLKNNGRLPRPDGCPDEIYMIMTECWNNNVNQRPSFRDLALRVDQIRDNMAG
Procedure: (§3) The catalytic activity of JAK1, JAK2 or JAK3 was assayed by measuring the phosphorylation of a biotinylated peptide. The phosphorylated peptide was detected by homogenous time resolved fluorescence (HTRF). […] Reactions were carried out at room temperature for 1 hour and then stopped with 20 μL 45 mM EDTA, 300 nM SA-APC, 6 nM Eu-Py20 in assay buffer (Perkin Elmer, Boston, MA). Binding to the Europium labeled antibody took place for 40 minutes and HTRF signal was measured on a Fusion plate reader (Perkin Elmer, Boston, MA).

human JAK1 = human JAK1 (Homo sapiens, UniProt P23458); assay: In vitro JAK kinase assay (HTRF, Example A); assay type: biochemical; settings: 1 mM ATP
Procedure: as §3

[4] = co-cultured with CD3/CD28-activated human CD8+ T cells
[5] = melanocytes treated with activated T cell conditioned media

Compound: N#CC[C@H](C1CCCC1)n1cc(-c2ncnc3[nH]ccc23)cn1 [ruxolitinib]
- suppressed melanocyte proliferation response (Normal Human Melanocytes [1]): completely reverse
- spontaneous proliferation compared to the natural melanocyte proliferation rate (Normal Human Melanocytes [1]): significant reduction
- LIF, T cells [2]: on-target inhibition
- IL-2, protein T cell media [2, 4]: upregulated
- IL-4, protein T cell media [2, 4]: no effect
- IL-5, protein T cell media [2, 4]: no effect
- IL-6, protein T cell media [2, 4]: no effect
- additional mediators not obligated to use JAK1 signaling (growth factors and chemokine), protein T cell media [2, 4]: reduced
- inflammatory cytokines that are JAK-STAT dependent, protein T cell media [2, 4]: inhibits
- IL-8 concentration, CD8+ T cells ([2]; treatment of CD8+ T cells): slightly reduced
- IL-10, protein melanocyte media (Normal Human Melanocytes [3]; [5]): no effect
- IL-13, protein melanocyte media (Normal Human Melanocytes [3]; [5]): no effect
- inflammatory cytokines that are JAK-STAT dependent, protein melanocyte media (Normal Human Melanocytes [3]; [5]): reduces
- IL-8, protein melanocyte media (Normal Human Melanocytes [3]): reduced

Compound: Cc1n[nH]c(C)c1-c1cnn(C2(CC#N)CN(c3cc(F)c(C(=O)N[C@@H](C)C(F)(F)F)cc3F)C2)c1 [Compound 1, 4-[3-(cyanomethyl)-3-(3′,5′-dimethyl-1H,1′H-4,4′-bipyrazol-1-yl)azetidin-1-yl]-2,5-difluoro-N-[(1S)-2,2,2-trifluoro-1-methylethyl]benzamide]
- suppressed melanocyte proliferation response (Normal Human Melanocytes [1]): partially reversed
- spontaneous proliferation compared to the natural melanocyte proliferation rate (Normal Human Melanocytes [1]): significant reduction
- melanocyte proliferation (% confluence) (Normal Human Melanocytes [1]; following transfer of 20% unactivated T cell media): does not directly alter
- LIF, T cells [2]: on-target inhibition
- additional mediators not obligated to use JAK1 signaling (growth factors and chemokine), protein T cell media [2, 4]: reduced
- inflammatory cytokines that are JAK-STAT dependent, protein T cell media [2, 4]: inhibits
- increase of IL-8 (Normal Human Melanocytes [3]; melanocyte culture): ~450%
- reduction of HGF levels (Normal Human Melanocytes [3]; melanocyte culture supernatants after activated T cell conditioned media): ~67%
- inflammatory cytokines that are JAK-STAT dependent, protein melanocyte media (Normal Human Melanocytes [3]; [5]): reduces
- IL-8, protein melanocyte media (Normal Human Melanocytes [3]): increased

Compound: N#CC[C@]1(n2cc(-c3ncnc4[nH]ccc34)cn2)C[C@H](N2CCC(Oc3cc(CN4CC(O)C4)cc(C(F)(F)F)n3)CC2)C1 [Compound 11, {trans-3-(4-{[4-[(3-hydroxyazetidin-1-yl)methyl]-6-(trifluoromethyl)pyridin-2-yl]oxy}piperidin-1-yl)-1-[4-(7H-pyrrolo[2,3-d]pyrimidin-4-yl)-1H-pyrazol-1-yl]cyclobutyl}acetonitrile]
- JAK2/JAK1 (human JAK2): >10
- IC50 (human JAK1): < 10 nM

Compound: N#CCC1(n2cc(-c3ncnc4[nH]ccc34)cn2)CN([C@H]2CC[C@@H](Oc3cc(CN4CC[C@@H](O)C4)cc(C(F)(F)F)n3)CC2)C1 [Compound 21, {1-(cis-4-{[4-{[(3R)-3-hydroxypyrrolidin-1-yl]methyl}-6-(trifluoromethyl)pyridin-2-yl]oxy}cyclohexyl)-3-[4-(7H-pyrrolo[2,3-d]pyrimidin-4-yl)-1H-pyrazol-1-yl]azetidin-3-yl}acetonitrile]
- JAK2/JAK1 (human JAK2): >10
- IC50 (human JAK1): < 10 nM

Compound: N#CCC(CN1CCN(C(=O)c2ccc(C#N)cc2F)CC1)n1ccc(-c2ncnc3[nH]ccc23)c1 (stereo not drawn) [Compound 9, 4-[(4-{3-cyano-2-[3-(7H-pyrrolo[2,3-d]pyrimidin-4-yl)-1H-pyrrol-1-yl]propyl}piperazin-1-yl)carbonyl]-3-fluorobenzonitrile]
- JAK2/JAK1 (human JAK2): >10
- IC50 (human JAK1): < 10 nM

Compound: N#CC[C@]1(n2cc(-c3ncnc4[nH]ccc34)cn2)C[C@H](N2CCC(Oc3cc(CCO)cc(C(F)(F)F)n3)CC2)C1 [Compound 26, {trans-3-(4-{[4-(2-hydroxyethyl)-6-(trifluoromethyl)pyridin-2-yl]oxy}piperidin-1-yl)-1-[4-(7H-pyrrolo[2,3-d]pyrimidin-4-yl)-1H-pyrazol-1-yl]cyclobutyl}acetonitrile]
- JAK2/JAK1 (human JAK2): >10
- IC50 (human JAK1): < 10 nM

Compound: N#CCC1(n2cc(-c3ncnc4[nH]ccc34)cn2)CN(C2CCN(C(=O)c3ccnc(C(F)(F)F)c3F)CC2)C1 [Compound 4, {1-{1-[3-Fluoro-2-(trifluoromethyl)isonicotinoyl]piperidin-4-yl}-3-[4-(7H-pyrrolo[2,3-d]pyrimidin-4-yl)-1H-pyrazol-1-yl]azetidin-3-yl}acetonitrile]
- JAK2/JAK1 (human JAK2): >10
- IC50 (human JAK1): < 10 nM

Compound: N#CCC1(n2cc(-c3ncnc4[nH]ccc34)cn2)CN(C2CCN(C(=O)Nc3ccc(F)cc3C(F)(F)F)CC2)C1 [Compound 2, 4-{3-(Cyanomethyl)-3-[4-(7H-pyrrolo[2,3-d]pyrimidin-4-yl)-1H-pyrazol-1-yl]azetidin-1-yl}-N-[4-fluoro-2-(trifluoromethyl)phenyl]pipe-ridine-1-carboxamide]
- JAK2/JAK1 (human JAK2): >10
- IC50 (human JAK1): < 10 nM
